Results as given in patent publication US9963703B2, “Compositions and methods for treating pancreatic cancer” (Autotelic LLC, priority 2016, dated 2018).
In the oligonucleotide strings, read from the 5' end, every base follows the letter of its sugar. An asterisk marks phosphorothioate; unmarked linkages are phosphodiester. Other units and linkages are bracketed, terminal groups are in braces. A string of capitals states the bases alone. d = 2'-deoxy (DNA)

How the values were obtained:
TGFβ2 [1] = experiment: TGFβ2 secretion/expression in WiDr colon cancer cells; format: cell-based
Excerpt: (§1) The aim of the study was to determine the effect of AP12009 (trabedersen) treatment in combination with 5-Fluorouracil (5-FU) on TGFβ2 secretion and on cellular proliferation of HUP-T3 pancreatic cancer cells and WiDr colon cancer cells in vitro.

[2] = tested on: HUP-T3 pancreatic cancer cells; experiment: Cellular proliferation of HUP-T3 pancreatic cancer cells in vitro
Excerpt: as §1

A-172 glioma cells = experiment: Migration of A-172 glioma cells; format: cell-based
Method: (§2) A-172 glioma cells were treated with a combination of AP12009 (trabedersen) 0 to 10 μM) and different concentrations of TMZ (temozolomide) for 7 days (treatment schedule 2*2/1*3 d).

TGFβ2 [3] = experiment: TGFβ2 secretion in A-172 glioma cells; format: cell-based
Method: as §2
In summary there is no clear beneficial effect in combining AP12009 with TMZ in A-172 cells.

TGFβ2 [4] = experiment: TGFβ2 secretion/expression in HUP-T3 pancreatic cancer cells; format: cell-based
Excerpt: as §1

pancreatic cancer = experiment: Phase I/II study P-001, efficacy (PFS, OS) in pancreatic cancer patients; format: in vivo, human
Method: At screening, up to 10 “measurable lesions” (i.e. lesions that could be accurately measured in at least 1 dimension with a longest diameter of 2 cm) representative of all involved organs were identified as “target lesions” for tumor response assessment and were measured and documented. All other lesions were defined and recorded as “non-target lesions”. Tumor response was determined by the local investigator every 8 weeks after start of the first trabedersen cycle during follow-up visits, irrespective of whether the patient was still on treatment or off treatment. The tumor assessment was based on Response Evaluation Criteria in Solid Tumors (RECIST 1.0) criteria. The categories of overall tumor response are as follows: (1) Complete response (CR): disappearance of all target and non-target lesions and normalization of tumor marker level; (2) Partial response (PR): at least 30% decrease in the sum of the longest diameter (LD) of target lesions (baseline sum LD as reference) and/or persistence of one or more non-target lesions and/or maintenance of tumor marker level above normal limits; (3) Stable disease (SD): less than 30% decrease or less than 20% increase in sum LD target lesions (smallest sum LD since treatment start as reference) and/or persistence of one or more non-target lesions and/or maintenance of tumor marker level above normal limits; (4) Progressive disease (PD) At least 20% increase in sum LD target lesions (smallest sum LD since treatment start as reference) and/or unequivocal progression of existing nontarget lesions and/or appearance of one or more new lesions; and (5) Unknown.
Progression-free survival (PFS) was defined as the time from Day 1 until tumor progression or death from any cause. The date of progression was either the date of the image showing progression or the date of treatment termination in case one of the reasons for treatment termination was tumor progression (referring to clinical progression as assessed by the Investigator), whichever occurred first.
Overall survival (OS) was defined as the time from Day 1 until death from any cause. All patients were followed for survival during the follow-up assessments every 8 weeks. The survival status was documented at the Final Visit (Day 29) and during the 8-weekly post-treatment follow-up assessments, and was continued to be collected after study closure until database lock or until the patient was lost to follow-up.
There were […] line patients and 11 third line and beyond on the 4 days on and 10 days off regimen. The PFS/OS (progression free survival/overall survival ratio) of these second line patients in months were: 1.87/5.60 (N=6), 1.87/9.93 (N=11) and 2.72/11.80 (N=5) at increasing mean dose of 140 mg/m^2/day, 167 mg/m^2/day, and 196 mg/m^2/day, respectively. The OS of 9.93 and 11.80 are higher than the highest reported in the 65 trials reported in the literature during 1997-2015 (range=2.50-9.20/median=5.50). The corresponding PFS values were in line with reported literature (range=0.00-7.65/median=2.43). […] Trabedersen itself was not having an impact on the tumor (FIG. 1).

[5] = AP12009 in combination with TMZ
[6] = FIG. 1, trabedersen as second line treatment
[7] = second line pancreatic cancer patients, 4 days on/10 days off, mean dose 140 mg/m^2/day (N=6)
[8] = second line pancreatic cancer patients, 4 days on/10 days off, mean dose 167 mg/m^2/day (N=11)
[9] = second line pancreatic cancer patients, 4 days on/10 days off, mean dose 196 mg/m^2/day (N=5)

trabedersen: TGF-beta2 specific phosphorothioate antisense oligodeoxynucleotide with the sequence 5′-CGGCATGTCTATTTTGTA-3′ (SEQ ID No: 1) (antisense dC*dG*dG*dC*dA*dT*dG*dT*dC*dT*dA*dT*dT*dT*dT*dG*dT*dA)
TGFβ2 expression, % of untreated control (TGFβ2 [1]; 10 μM AP12009): 54% | combination effect on TGFβ2 expression (TGFβ2 [1]; 10 μM AP12009 and 5-FU): sub-additive effects | effect on proliferation of adding AP12009 to 5-FU compared with 5-FU alone [2]: did not result in any additional inhibition of proliferation | cell proliferation, % of untreated control ([2]; HUP-T3, 10 μM AP12009 monotherapy): 53% | effect on migration compared with untreated control (A-172 glioma cells; AP12009 10 μM monotherapy): did not affect migration | effect of AP12009 on TMZ effect on migration (A-172 glioma cells; [5]): did not influence the effects of TMZ on migration | combination effect on inhibition of TGFβ2 secretion (TGFβ2 [3]; [5]): additive effect | effect on TGFβ2 (TGFβ2 [3]; monotherapy, 7 days): strongly reduced | TGFβ2 expression, % of untreated control (TGFβ2 [4]; 10 μM AP12009 monotherapy): 42% | combination effect on inhibition of TGFβ2 expression (TGFβ2 [4]; 5-FU added to 10 μM AP12009): sub-additive or even antagonistic effects | OS (pancreatic cancer; 4/10 cohort treated with subsequent chemotherapies, p=0.0023, Log-rank): 14.7 mos | OS (pancreatic cancer; 4/10 cohort without subsequent chemotherapies): 2.93 mos | OS compared to reported median OS (pancreatic cancer; [6]): higher than reported in the literature | PFS compared to reported median PFS (pancreatic cancer; [6]): not significantly different | effect on the tumor, as indicated by overall survival rate (pancreatic cancer; FIG. 3, trabedersen alone): does not have a significant effect on the tumor | effect on overall survival rate (pancreatic cancer; FIG. 3, trabedersen therapy followed by chemotherapy): significant increase in the overall survival rate | OS (pancreatic cancer; chemotherapy on 2nd line followed by trabedersen 4/10 regimen as third line (N=9), p=0.046 vs trabedersen first): 2.80 mos | OS (pancreatic cancer; [7]): 5.60 months | PFS (pancreatic cancer; [7]): 1.87 months | OS (pancreatic cancer; [8]): 9.93 months | PFS (pancreatic cancer; [8]): 1.87 months | OS (pancreatic cancer; [9]): 11.80 months | PFS (pancreatic cancer; [9]): 2.72 months | OS (pancreatic cancer; trabedersen on 2nd line followed with subsequent therapies (N=11), p=0.046, Log-rank): 9.93 mos
